Measured values from patent US20090093469A1, “Phenylaminopropanol Derivatives and Methods of Their Use” (WYETH, priority 2004, published 2009).
Counter-ions that a name gives are not always drawn.

Each molecule was assayed against T1, hNET (Homo sapiens, UniProt P23975) (assay: Norepinephrine (NE) uptake assay in MDCK-Net6 cells stably transfected with human hNET). Conditions: MDCK-Net6, read-out: % Inhibition @ 1 μM (hNET).
T1 construct: expressed in transfected cells
Type: cell-based

T1 sequence (P23975 whole entry): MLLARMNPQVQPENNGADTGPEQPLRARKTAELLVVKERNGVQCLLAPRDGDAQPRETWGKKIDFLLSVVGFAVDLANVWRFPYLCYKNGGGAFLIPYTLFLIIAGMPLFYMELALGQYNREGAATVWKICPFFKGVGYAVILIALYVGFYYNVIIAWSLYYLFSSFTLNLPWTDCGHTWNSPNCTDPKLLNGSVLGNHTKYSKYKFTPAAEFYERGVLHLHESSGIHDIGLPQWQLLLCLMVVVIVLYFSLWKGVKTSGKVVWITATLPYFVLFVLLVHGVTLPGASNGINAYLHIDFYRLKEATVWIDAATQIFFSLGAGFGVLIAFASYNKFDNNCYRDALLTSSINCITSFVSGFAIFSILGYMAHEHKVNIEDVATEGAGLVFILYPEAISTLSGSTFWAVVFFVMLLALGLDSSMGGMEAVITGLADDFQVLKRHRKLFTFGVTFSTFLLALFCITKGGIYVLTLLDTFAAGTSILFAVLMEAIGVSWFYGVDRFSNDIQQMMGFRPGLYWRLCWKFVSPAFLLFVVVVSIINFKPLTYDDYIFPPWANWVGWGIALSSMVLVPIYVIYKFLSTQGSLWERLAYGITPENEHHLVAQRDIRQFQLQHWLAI

Structure (SMILES)	inhibition at 1 µM [%]
CCCn1c(=O)n([C@@H](c2ccccc2)[C@H](O)CNC)c2ccccc21 [Example 193, 1-[(1S,2R)-2-hydroxy-3-(methylamino)-1-phenylpropyl]-3-propyl-1,3-dihydro-2H-benzimidazol-2-one hydrochloride]	98.4
CCNC[C@@H](O)[C@H](c1ccccc1)n1c(=O)n(C(C)C)c2ccc(F)cc21 [Example 204, 3-[(1S,2R)-3-(ethylamino)-2-hydroxy-1-phenylpropyl]-5-fluoro-1-isopropyl-1,3-dihydro-2H-benzimidazol-2-one hydrochloride]	47.4
CNC[C@@H](O)[C@H](c1ccccc1Cl)n1ccc2ccccc21 [Example 38, (1S,2R)-1-(2-chlorophenyl)-1-(1H-indol-1-yl)-3-(methylamino)propan-2-ol hydrochloride]	71.9
CNC[C@@H](O)[C@H](c1ccccc1)n1c(=O)n(C)c2ccccc21 [Example 205, 1-[(1S,2R)-2-hydroxy-3-(methylamino)-1-phenylpropyl]-3-methyl-1,3-dihydro-2H-benzimidazol-2-one hydrochloride]	82.9
CNC[C@@H](O)[C@H](c1cccc(F)c1)n1ccc2ccc(F)cc21 [Example 133, (1S,2R)-1-(6-fluoro-1H-indol-1-yl)-1-(3-fluorophenyl)-3-(methylamino)propan-2-ol hydrochloride]	96.4
CNC[C@@H](O)[C@H](c1cccc(F)c1)n1c(=O)n(C(C)C)c2cccc(F)c21 [Example 208, 4-fluoro-3-[(1S,2R)-1-(3-fluorophenyl)-2-hydroxy-3-(methylamino)-propyl]-1-isopropyl-1,3-dihydro-2H-benzimidazol-2-one hydrochloride]	99.8

Same assay, conditions: hydrochloride, 1 µM

Structure (SMILES)	% Inhibition @ 1 μM (hNET) [%]
CNC[C@@H](O)[C@@H](c1ccccc1)n1ccc2ccccc21 [Example 29, (1R,2R)-1-(1H-indol-1-yl)-3-(methylamino)-1-phenylpropan-2-ol hydrochloride]	89.5

Same assay, conditions: test compound 1 μM; [3H]NE uptake, MDCK-Net6 cells; read-out: % Inhibition @ 1 μM (hNET)

Structure (SMILES)	inhibition at 1 µM [%]
CNC[C@@](C)(O)[C@H](c1ccccc1)n1ccc2ccccc21 [Example 190, (1S,2R)-1-(1H-indol-1-yl)-2-methyl-3-(methylamino)-1-phenylpropan-2-ol hydrochloride]	53.7
CNC[C@@H](O)[C@H](c1cccc(F)c1)n1cc(-c2cccc(F)c2F)c2ccccc21 [Example 211, (1S,2R)-1-[3-(2,3-difluorophenyl)-1H-indol-1-yl]-1-(3-fluorophenyl)-3-(methylamino)propan-2-ol hydrochloride]	99.8
CNC[C@@H](O)[C@H](c1cc(F)cc(F)c1)N1CCc2ccc(F)cc21 [Example 174, (1S,2R)-1-(3,5-difluorophenyl)-1-(6-fluoro-2,3-dihydro-1H-indol-1-yl)-3-(methylamino)propan-2-ol hydrochloride]	99.1
CCN(C)C[C@H](O)[C@@H](c1ccccc1)n1ccc2ccccc21 (racemic) [Example 25, (1RS,2SR)-3-[ethyl(methyl)amino]-1-(1H-indol-1-yl)-1-phenylpropan-2-ol hydrochloride]	37.5
NCC[C@@H](O)[C@H](c1cccc(F)c1)n1ccc2ccccc21 [Example 159, (1S,2R)-4-amino-1-(3-fluorophenyl)-1-(1H-indol-1-yl)butan-2-ol hydrochloride]	93.8
CN1CCN(C[C@H](O)[C@@H](c2ccccc2)n2ccc3ccccc32)CC1 [Example 1, 1RS,2SR)-1-(1H-indol-1-yl)-3-(4-methylpiperazin-1-yl)-1-phenyl propan-2-ol dihydrochloride]	4.6

More lines, now with the values ahead:

inhibition at 1 µM [%]	Structure (SMILES)
97.6	CNC[C@@H](O)[C@H](c1ccccc1)n1ccc2cc(C)ccc21 [Example 95, (1S,2R)-3-(methylamino)-1-(5-methyl-1H-indol-1-yl)-1-phenylpropan-2-ol hydrochloride]
95.3	CNC[C@@H](O)[C@H](c1ccccc1)n1cc(C)c2cc(F)ccc21 [Example 117, (1S,2R)-1-(5-fluoro-3-methyl-1H-indol-1-yl)-3-(methylamino)-1-phenylpropan-2-ol hydrochloride]
40.9	CNC[C@@H](O)[C@H](c1ccccc1)n1ccc2ccncc21 [Example 84, (1S,2R)-3-methylamino-1-phenyl-1-(1H-pyrrolo[2,3-c]pyridin-1-yl) propan-2-ol dihydrochloride]
61.1	CCNC[C@@H](O)[C@H](c1cccc(F)c1)n1ccc2ccccc21 [Example 55, (1S,2R)-3-(ethylamino)-1-(3-fluorophenyl)-1-(1H-indol-1-yl)propan-2-ol hydrochloride]
76	CNC[C@@H](O)[C@H](c1ccccc1)n1ccc2cc(C#N)ccc21 [Example 130, 1-[(1S,2R)-2-hydroxy-3-(methylamino)-1-phenylpropyl]-1H-indole-5-carbonitrile hydrochloride]
80.8	CNC[C@@H](O)[C@H](c1cccc(F)c1)n1ccc2cc(C(F)(F)F)ccc21 [Example 185, (1S,2R)-1-(3-fluorophenyl)-3-(methylamino)-1-[5-(trifluoromethyl)-1H-indol-1-yl]propan-2-ol hydrochloride]
24.5	CN(C)C[C@H](O)[C@@H](c1ccccc1)n1ccc2ccccc21 (racemic) [Example 4, (1RS,2SR)-3-(dimethylamino)-1-(1H-indol-1-yl)-1-phenylpropan-2-ol hydrochloride]
